Patent publication US8415312B2, “Compound which is a nystatin derivative” (Biosergen AS, priority 2007, dated 2013)
Values after ≈ are worked out from the molar mass of the structure shown. Values joined by “and” are separate entries in the source; they are usually repeats but may differ in a detail not shown here. Equal values may be shown once.

Key:
[1] = tested on: mice (C57B1/6xDBA/2)F1 B6D2F1; settings: for LD50 / MTD: single injection into tail vein, probit analysis
Outline: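 Male B6D2F1 mice, 20-22 g, given one tail-vein injection of antibiotic suspended with sodium deoxycholate in phosphate buffer, within 1-1.5 h of preparation. Doses spanned 0% to 100% lethality with at least 3 intermediate doses, in randomized groups of 6 mice.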

Candida albicans = experiment: Neutropenic mouse model of disseminated candidosis; format: in vivo
Experimental: Mice were rendered neutropenic by injection with cyclophosphamide monohydrate (Fluka, BioChemika, Sigma-Aldrich, Switzerland) intraperitoneally 2×100 mg/kg of body weight 1 day before infection.

[2] = tested on: Candida albicans ATCC 14053; experiment: Antifungal susceptibility study (1), broth microdilution MIC; format: cell-based; settings: lowest concentration preventing any visible growth, read at 48 hours, 35° C., RPMI 1640 pH 7.0
Outline: (§1)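 Broth microdilution in test medium at pH 7.0 with two-fold compound dilutions (DMSO stocks diluted 50-fold into medium), inoculated with freshly grown yeast cultures. Plates were incubated without agitation at 35° C. for C. albicans or 25° C. for C. humicolus. MIC was taken as the concentration with no visible growth, read at 48 hours.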

[3] = tested on: Cryptococcus humicolus ATCC 9949; experiment: as above; format: cell-based; settings: lowest concentration preventing any visible growth, read at 48 hours, 25° C., RPMI 1640 pH 7.0
Outline: as §1

[4] = tested on: Aspergillus niger ATCC 16404; experiment: as above; format: cell-based; settings: lowest concentration preventing any visible growth, read at 48 hours, 35° C., RPMI 1640 pH 7.0
Outline: (§2)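 Broth microdilution was run at pH 7.0 with compounds diluted from DMSO solutions and mixed 1:1 with conidial inoculum. Spore suspensions were adjusted to OD530 0.09-0.11 for A. niger or 0.15-0.17 for F. oxysporum, then diluted 1:50. Plates were incubated at 35° C without agitation, and MIC was read at 48 hours as absence of visible growth.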

[5] = tested on: Fusarium oxysporum VKM F-140; experiment: as above; format: cell-based; settings: lowest concentration preventing any visible growth, read at 48 hours, 35° C., RPMI 1640 pH 7.0
Outline: as §2

[6] = tested on: Candida albicans ATCC 10231; experiment: Antifungal susceptibility study (2), MIC50 by OD490 growth; format: cell-based; settings: 50% growth inhibition from regression curve, M19 medium without NaCl, 30° C.
Experimental: The anti-fungal activity of several of the nystatin derivatives was further investigated. […] The anti-fungal activity of a number of the nystatin derivatives was therefore determined in a method which is designed to be more sensitive.
The test organism used for the further testing of polyene macrolide bioactivity was Candida albicans ATCC 10231, grown in 120 μl of standard M19 medium without NaCl (with an inoculum of 1000 cfu per well) and 30 μl of diluted polyene macrolide samples. The antibiotics were diluted in MeOH in series ensuring a spectrum of concentrations which yielded results ranging from complete growth inhibition to no inhibition of the test organism. The test organism cultures with antibiotic dilutions were incubated in 96-well microtiter plates at 30° C. without shaking, and growth was measured as OD490 after 12, 14 and 16 hours on a SpectraMax Plus microtiter plate reader. OD was plotted against antibiotic concentration, and MIC50 was estimated from the regression curve at 50% growth inhibition.

erythrocytes = experiment: In vitro toxicity study, haemolysis (Tables 11 and 12); format: cell-based, horse
Experimental: The toxicity of various nystatin derivatives was tested at 2 and 5 μg/mL and at 25 μM.
Compounds were dissolved in DMSO at 5 mg/mL and 0.1 mL samples with different concentrations were prepared in DMSO. The samples were mixed with 0.9 mL PBS buffer containing 2.5% horse blood (PBS-HB; kept on ice) and incubated at 37° C. for 30 min without agitation.
Cells were pelleted by centrifugation at 5000 rpm for 5 min and haemolysis was evaluated by measuring OD545. 100% haemolysis was defined as the OD545 value obtained from a suspension of 2.5% horse blood in distilled water.

[7] = tested on: yeasts and filamentous fungi (moulds); experiment: Antifungal susceptibility study (1), overall comparison across the test organisms; format: cell-based; settings: Table 5 MICs
Experimental: The organisms used for susceptibility testing were: Candida albicans ATCC 14053, Cryptococcus humicolus ATCC 9949, Aspergillus niger ATCC 16404 and Fusarium oxysporum VKM F-140 (=CMI, IMI 90473). Organisms were stored on potato dextrose agar […] 50% glycerol solution at -70° C. For short-term storage, stock cultures were stored on agar […] 4° C. The cultures of yeasts were sub-cultured onto Sabouraud dextrose (SAB) agar and incubated for 24 hours at 35° C. (Candida albicans) or for 48 hours at 25° C. (Cryptococcus humicolus) to obtain a freshly grown pure culture. The cultures of moulds were sub-cultured onto potato dextrose agar and incubated for 7 days at 35° C. […] (Fusarium oxysporum) to ensure maximum sporulation. Sterile 96-well flat-bottomed microtitration plates were used for testing. 100 μl of diluted inocula were dispensed into each microdilution well containing 100 μl of the double dilutions of compounds. Drug-free and yeast/mould-free controls were included. Microdilution trays were incubated at 35° C. (Candida albicans and moulds) or 25° C. (Cryptococcus humicolus) without agitation and observed for the presence or absence of visible growth. […] Minimal inhibitory concentrations (MICs) were read at 48 hours.

CC1C=CC=CC=CC=CC=CC=CC=CC(OC2OC(C)C(O)C(N)C2O)CC2OC(O)(CC(O)CC(O)CC(O)CC(O)CC(O)CC(=O)OC(C)C(C)C1O)CC(O)C2C.NC(CCC(=O)O)C(=O)O (stereo not shown) [Compound 26]
acute toxicity, times lower than amphotericin B [1]: ~20 times | LD50 [1]: 50.0 mg/kg | MTD [1]: 43.1 mg/kg | activity compared with amphotericin B (Candida albicans): less active than amphotericin B

CC1C=CC=CC=CC=CC=CC=CC=CC(OC2OC(C)C(O)C(N)C2O)CC2OC(O)(CC(O)CCCC(O)CC(O)CC(O)CC(=O)OC(C)C(C)C1O)CC(O)C2C.NC(CCC(=O)O)C(=O)O (stereo not shown) [Compound 25]
acute toxicity, times lower than amphotericin B [1]: ~20 times | LD50 [1]: 50.8 mg/kg | MTD [1]: 42.8 mg/kg | activity compared with amphotericin B (Candida albicans): less active than amphotericin B

CC1C=CC=CC=CC=CC=CC=CC=CC(OC2OC(C)C(O)C(N)C2O)CC2OC(O)(CC(O)C(O)CCC(O)CC(O)CC(O)CC(=O)OC(C)C(C)C1O)CC(O)C2C(=O)NCCCO (stereo not shown) [Compound 12]
MIC Candida albicans ATCC 14053 [2]: 1 µg/mL (≈ 1.02 µM) | MIC Cryptococcus humicolus ATCC 9949 [3]: 1 µg/mL (≈ 1.02 µM) | MIC Aspergillus niger ATCC 16404 [4]: 2 µg/mL (≈ 2.04 µM) | MIC Fusarium oxysporum VKM F-140 [5]: 2 µg/mL (≈ 2.04 µM) | MIC50 [6]: 0.14 µg/mL (≈ 0.143 µM) | Haemolysis of erythrocytes, Mean ± SE (erythrocytes; 5 μg/mL (Table 11)): 4.4 ± 0.3% | Haemolysis of erythrocytes (erythrocytes; 5 μg/mL, individual blood samples # 1-3 (Table 11)): 5% and 4.3% and 4.0% | anti-fungal activity compared with Amphotericin B and S44HP [7]: comparable anti-fungal activity to Amphotericin B and S44HP
